From patent publication US20240180139A1, “SOLVENT FOR INSECT REPELLENT ACTIVE INGREDIENT AND INSECT REPELLENT SYSTEM USING SAME” (Thermacell Repellents, Inc., priority 2021, published 2024)
Where two headings read alike, the source gives them in different places. Each block holds one molecule with its values, some of them ahead of it.

Key:
[1] = test system: mosquitoes; assay: outdoor spatial mosquito repellency
Excerpt: Once candidate materials are identified, considerations of whether release rates relative to the selected glycols would be sufficient to deliver good spatial mosquito repellency. […] In one embodiment, an approximate 70:30 solvent ratio of two solvents is provided. In another aspect, the solvent ratio may be a ratio range such as 60-70:40-30, or 65-70:35-30, wherein the sum of specific glycol amounts totals to 100.

[2] = release / vaporization rate through heated wick of dispensing device; assay type: physicochemical; conditions: relative to metofluthrin and transfluthrin, in certain test conditions
Excerpt: Once candidate materials are identified, considerations of whether release rates relative to the selected glycols would be sufficient to deliver good spatial mosquito repellency. […] In one embodiment, an approximate 70:30 solvent ratio of two solvents is provided.

[3] = solubility of pyrethroid active ingredients in glycol solvents
Excerpt: In the development of active ingredient and solvent formulations, glycols, like glycol-related solvents, have physical and chemical characteristics that would not be considered an aspiration hazard. Evaluations of a range of glycol and modified glycol solvents also involved consideration of a variety of materials in contact with these solvents. […] In addition to considerations of the device, solubility of the active ingredients is a significant consideration on several levels. […] Considerations of not only the solvent material but the concentration levels of particular active ingredients ae necessary to create an efficacious formula compatible with heated repeller devices. […] Incorporating active ingredients at such high levels creates additional solubility challenges which further reduces suitable active ingredient candidates.

SMILES: C/C=C/C1C(C(=O)OCc2c(F)c(F)c(COC)c(F)c2F)C1(C)C (centres unmarked) [metofluthrin]
zone of mosquito repellency ([1]; glycol as solvent, 3-4 Watt heating element): 20 foot
active ingredient concentration in the formula needed for sufficient outdoor mosquito repellency ([1]; outdoors): 4%

release rate capacity [2]: limited release rate capacity
SMILES: OCC(O)CO [glycerol]

SMILES: OCCO [ethylene glycol]
solvent quality for insect repellents ([3]; some of the insect repellents, particularly prallethrin (FIG. 6)): not good solvents

solvent quality for insect repellents [3]: not good solvents
SMILES: CC(O)CO (centres unmarked) [propylene glycol]
